From PubChem BioAssay (NCI) come the findings set out here.

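The compound was tested at five concentrations on cells cultured in 96-well plates, with a 48-hour exposure period. The concentration for full growth arrest is given as TGI.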

Test systems include HCT-15 colon; T-47D breast; OVCAR-3 ovarian; K-562 leukemia; NCI-H522 lung; SW-620 colon; CAKI-1 renal; TK-10 renal; MDA-MB-435; RXF 393 renal.
What all share (test): NCI-60 cell line screen, 48 h

As to `CC[C@@]12C=CC(=S)N(CCSc3ccccc3)[C@@H]1c1c(n(S(=O)(=O)c3ccc(OC)cc3)c3ccccc13)CC2`, the TGI in the experiment with HCT-15 colon, in the experiment on T-47D breast, in the experiment on OVCAR-3 ovarian, in the experiment on K-562 leukemia, in the experiment with NCI-H522 lung and in the experiment on SW-620 colon was over 100 µM in each case. Also, the TGI in the experiment with CAKI-1 renal, in the experiment with TK-10 renal, in the experiment with MDA-MB-435 and with RXF 393 renal was over 100 µM in each case.

As to `O=c1cc(N=Nc2ccc(Cl)cc2)[nH]c(=O)[nH]1`, the TGI with HCT-15 colon is 4.43 µM; in the experiment on T-47D breast, 11.9 µM; with OVCAR-3 ovarian, 9.53 µM; with K-562 leukemia, over 31.6 µM; in the experiment on NCI-H522 lung, 3.63 µM; in the experiment with SW-620 colon, 5.65 µM. For the same compound, the TGI in the experiment on CAKI-1 renal worked out at 4.12 µM; in the experiment with TK-10 renal it was 13.5 µM; with MDA-MB-435 it was 14 µM; in the experiment with RXF 393 renal, 10.2 µM.

For the compound `CC(NC(=O)C(N)CC(=O)O)NC(=O)N(C)C(C)(C)C` (stereo not given), the TGI in the experiment with HCT-15 colon, in the experiment with T-47D breast, in the experiment on OVCAR-3 ovarian, in the experiment on K-562 leukemia, in the experiment on NCI-H522 lung and with SW-620 colon was over 100 µM each time. Moreover, the TGI in the experiment on CAKI-1 renal, in the experiment on TK-10 renal, in the experiment on MDA-MB-435 and with RXF 393 renal was over 100 µM throughout.

In the case of `CC(C)C1CC[C@H](C)C[C@@H]1OC(=O)C(C(=O)O[C@H]1C[C@@H](C)CCC1C(C)C)C(O)[C@@H]1OC(C)(C)O[C@H]1C1COC(C)(C)O1` (stereo not given in full), the TGI is 44.3 µM in the experiment on HCT-15 colon; 32.3 µM in the experiment on T-47D breast; 36.2 µM in the experiment with OVCAR-3 ovarian; 32.2 µM in the experiment with K-562 leukemia; 3.95 µM in the experiment on NCI-H522 lung; 35.7 µM with SW-620 colon. Moreover, the TGI in the experiment on CAKI-1 renal was 34.6 µM; in the experiment with TK-10 renal it was 37.1 µM; in the experiment with MDA-MB-435 it was 32 µM; with RXF 393 renal it was 28.9 µM.

Regarding `CC(=O)/C=C(\O)c1[nH]c(C(=O)O)cc1C1CCN(Cc2ccccc2)C1=O` (stereo not given), the TGI was 38.4 µM in the experiment with HCT-15 colon; 49.8 µM in the experiment with T-47D breast; 54.9 µM with OVCAR-3 ovarian; 95.1 µM with K-562 leukemia; 49.7 µM with NCI-H522 lung; over 100 µM in the experiment with SW-620 colon. Also, the TGI in the experiment on CAKI-1 renal is over 100 µM; in the experiment with TK-10 renal it was over 100 µM; in the experiment on MDA-MB-435 it was over 100 µM; in the experiment with RXF 393 renal it was 30.2 µM.

As to `O=C1c2ccccc2-c2nc(/C=C/c3ccccc3)cc3c2c1nc1ccccc13`, the TGI in the experiment with HCT-15 colon is 40.8 µM; in the experiment with T-47D breast, over 100 µM; in the experiment on OVCAR-3 ovarian, 3.95 µM; in the experiment with K-562 leukemia, 32.2 µM; in the experiment with NCI-H522 lung it was 30.2 µM; in the experiment on SW-620 colon it was 85.6 µM. Further, the TGI in the experiment with CAKI-1 renal is over 100 µM; in the experiment on TK-10 renal it was over 100 µM; in the experiment with MDA-MB-435 it was 26.9 µM; with RXF 393 renal, over 100 µM.

As for `C=CCCCCCCCCCOC1C=CC(OC(C)=O)C(COC(C)=O)O1` (stereo not given), the TGI was over 100 µM in the experiment with HCT-15 colon; over 100 µM in the experiment with T-47D breast; over 100 µM in the experiment with OVCAR-3 ovarian; 17.4 µM with K-562 leukemia; over 100 µM in the experiment with NCI-H522 lung; over 100 µM with SW-620 colon. For the same compound, the TGI in the experiment with CAKI-1 renal, in the experiment with TK-10 renal, in the experiment on MDA-MB-435 and with RXF 393 renal was over 100 µM throughout.

In the case of `Cc1ccc(S(=O)(=O)NC(=O)NC(Cc2ccc(O)c(O)c2)C(=O)O)cc1` (stereo not given), the TGI in the experiment with HCT-15 colon is over 100 µM; with T-47D breast it was over 100 µM; with OVCAR-3 ovarian it was over 100 µM; in the experiment on K-562 leukemia it was over 100 µM; with NCI-H522 lung it was over 100 µM; in the experiment with SW-620 colon, 61.9 µM. The TGI with CAKI-1 renal, with TK-10 renal, in the experiment on MDA-MB-435 and with RXF 393 renal was over 100 µM each time.

For `c1ccc(C(CCN2CC3CCC(CC3)C2)c2ccccc2)cc1`, the TGI in the experiment on HCT-15 colon is 45.4 µM; in the experiment on T-47D breast, 49.1 µM; in the experiment with OVCAR-3 ovarian, 44.3 µM; in the experiment with K-562 leukemia, 47.7 µM; with NCI-H522 lung, 31.9 µM; in the experiment on SW-620 colon it was over 100 µM. In addition, the TGI with CAKI-1 renal was over 100 µM; with TK-10 renal, 72.7 µM; in the experiment with MDA-MB-435, 65.4 µM; with RXF 393 renal, 37.9 µM.

Regarding `O=[N+]([O-])c1c2nc3n(c2cc2c1nc1n2CCC1)CCC3`, the TGI in the experiment with HCT-15 colon, in the experiment on T-47D breast, in the experiment with OVCAR-3 ovarian, in the experiment with K-562 leukemia, with NCI-H522 lung and in the experiment on SW-620 colon was over 100 µM throughout. In addition, the TGI in the experiment on CAKI-1 renal, with TK-10 renal, in the experiment with MDA-MB-435 and with RXF 393 renal was over 100 µM each time.

Consider `C=C(C(=O)OC)c1cc2ccccc2n1S(=O)(=O)c1ccccc1`, for which the TGI in the experiment on HCT-15 colon is 5.37 µM; in the experiment on T-47D breast, 5.51 µM; in the experiment with OVCAR-3 ovarian, 11.4 µM; in the experiment on K-562 leukemia, over 100 µM; in the experiment on NCI-H522 lung, 2.54 µM; in the experiment with SW-620 colon, 4.63 µM. The TGI in the experiment on CAKI-1 renal amounted to 2.4 µM; in the experiment on TK-10 renal, 3.91 µM; with MDA-MB-435, 7.28 µM; in the experiment on RXF 393 renal, 2.54 µM.

Take `NS(=O)(=O)c1nnc(NS(=O)(=O)c2ccccc2C(=O)O)s1`: the TGI with HCT-15 colon, in the experiment on T-47D breast, in the experiment with OVCAR-3 ovarian, with K-562 leukemia, in the experiment with NCI-H522 lung and with SW-620 colon was over 100 µM throughout. Further, the TGI in the experiment on CAKI-1 renal, in the experiment with TK-10 renal, in the experiment with MDA-MB-435 and in the experiment with RXF 393 renal was over 100 µM in each case.

Consider `S=C(Nc1ccccn1)Nc1ccccc1Cl`, for which the TGI in the experiment with HCT-15 colon was over 100 µM; with T-47D breast it was over 100 µM; with OVCAR-3 ovarian, over 100 µM; in the experiment on K-562 leukemia, over 100 µM; with NCI-H522 lung, 37.9 µM; with SW-620 colon, over 100 µM. For the same compound, the TGI in the experiment with CAKI-1 renal, in the experiment with TK-10 renal, with MDA-MB-435 and with RXF 393 renal was over 100 µM in each case.

`CCN(CC)C(=O)N1CN(c2ccccc2)C2(CCN(CCCSc3ccc(F)cc3)CC2)C1=O`: the TGI was 26.4 µM in the experiment on HCT-15 colon; 47.1 µM in the experiment with T-47D breast; 18.6 µM with OVCAR-3 ovarian; 27.4 µM with K-562 leukemia; 30.5 µM in the experiment on NCI-H522 lung; 43 µM with SW-620 colon. The TGI with CAKI-1 renal is over 100 µM; with TK-10 renal, 31.5 µM; in the experiment with MDA-MB-435 it was 42.5 µM; with RXF 393 renal it was 29.7 µM.

Take `CC(=O)Oc1ccc(/C=C/C(=O)O[C@H]2CCCC[C@@H]2OC(=O)/C=C/c2ccc(OC(C)=O)c(OC(C)=O)c2)cc1OC(C)=O`: the TGI in the experiment with HCT-15 colon was 31.2 µM; in the experiment with T-47D breast it was 47.1 µM; in the experiment on OVCAR-3 ovarian, 95.7 µM; in the experiment on K-562 leukemia it was over 100 µM; with NCI-H522 lung, 22.3 µM; in the experiment with SW-620 colon it was 10.6 µM. Moreover, the TGI is over 100 µM in the experiment on CAKI-1 renal, 63.2 µM in the experiment on TK-10 renal, 32.7 µM with MDA-MB-435 and 27.7 µM with RXF 393 renal.

Consider `Clc1ncc(Cl)c(Cl)n1`, for which the TGI in the experiment with HCT-15 colon worked out at 5.99 µM; with T-47D breast it was 10 µM; with OVCAR-3 ovarian, 14.3 µM; in the experiment with K-562 leukemia, 4.08 µM; with NCI-H522 lung it was 5.69 µM; in the experiment on SW-620 colon, 2.94 µM. For the same compound, the TGI in the experiment with CAKI-1 renal came out at 3.25 µM; with TK-10 renal, 23.1 µM; with MDA-MB-435, 7.52 µM; in the experiment with RXF 393 renal, 5.46 µM.

As to `CC1CCc2sc3[nH]c(=S)n(-c4ccccc4)c(=O)c3c2C1` (stereo not given), the TGI is over 100 µM with HCT-15 colon; over 100 µM in the experiment with T-47D breast; 85.3 µM in the experiment with OVCAR-3 ovarian; over 100 µM with K-562 leukemia; over 100 µM in the experiment with NCI-H522 lung; over 100 µM with SW-620 colon. The TGI with CAKI-1 renal, in the experiment with TK-10 renal, in the experiment with MDA-MB-435 and with RXF 393 renal was over 100 µM in each case.

For the compound `C[C@]1(O)O[C@@H]2OCC[C@@H]2C2=C1C(=O)c1ccccc1C2=O`, the TGI in the experiment with HCT-15 colon was determined as 39.1 µM; in the experiment with T-47D breast, 59.1 µM; in the experiment with OVCAR-3 ovarian it was 22.3 µM; with K-562 leukemia it was 59.5 µM; in the experiment with NCI-H522 lung, 31.6 µM; in the experiment on SW-620 colon, 39.8 µM. The TGI in the experiment on CAKI-1 renal was 34.7 µM; in the experiment with TK-10 renal, 35.5 µM; in the experiment on MDA-MB-435, 19.5 µM; in the experiment on RXF 393 renal, 27.2 µM.

For `COc1ccc(-c2cc(-c3cc(F)c(Cl)cc3Cl)on2)cc1OC`, the TGI in the experiment with HCT-15 colon, in the experiment on T-47D breast, in the experiment on OVCAR-3 ovarian, in the experiment with K-562 leukemia, with NCI-H522 lung and in the experiment on SW-620 colon was over 100 µM in each case. The TGI in the experiment on CAKI-1 renal is over 100 µM; in the experiment on TK-10 renal, over 100 µM; with MDA-MB-435, 16.9 µM; in the experiment on RXF 393 renal it was 46.6 µM.

As for `COc1ccc2cc(C(=O)NCCCNC(=O)c3ccc4cc(OC)ccc4c3)ccc2c1`, the TGI in the experiment on HCT-15 colon, with T-47D breast, in the experiment on OVCAR-3 ovarian, in the experiment on K-562 leukemia, with NCI-H522 lung and in the experiment on SW-620 colon was over 100 µM throughout. Moreover, the TGI in the experiment on CAKI-1 renal is over 100 µM; in the experiment with TK-10 renal it was over 100 µM; with MDA-MB-435 it was over 100 µM; in the experiment on RXF 393 renal, 39.6 µM.
